# Experimental data from patent publication US5256788A, “Moranoline derivatives and their production and the use of moranoline and its derivatives as a stabilizing agent for enzymes” (Nippon Shinyaku Co. Ltd., priority 1989, dated 1993).
# Experiments:
# glucoamylase = target: T1, glucoamylase (Rhizopus arrhizus, UniProt P07683); experiment: Stabilization of GA (aqueous solution) by moranoline, N-methylmoranoline; format: biochemical, Rhizopus niveus
# T1 construct: maltose substrate
# Protocol: As the enzyme, Rhizopus niveus-derived reagent glucoamylase manufactured by Seikagaku Kogyo Co., Ltd. was used.
# After 5 mg of the enzyme was dissolved in 1 ml of 0.1M acetate buffer solution (pH 5.0), moranoline and N-methylmoranoline were dissolved in the solution in a concentration of 6000 μg/ml. The solution was charged in a test tube with a screw stopper followed by incubation at 50° C. Each enzyme solution was diluted with 0.1M acetate buffer solution (pH 5.0) to 100-fold and 100 μl of the dilution was taken. After 400 μl of 5% maltose solution (0.05M acetate buffer solution, pH 4.6) was added thereto, the mixture was reacted at 40° C. for 20 minutes. […] Thereafter, the system was ice cooled and absorbency was measured at 500 nm to determine the glucose amount. […] When the initial enzyme activity (amount of glucose produced) was made […], relative enzyme activity was determined. […]
# After 5 mg of the enzyme was dissolved in 1 ml of 0.1M acetate buffer solution (pH 5.0), moranoline and N-methylmoranoline were dissolved in the solution in a concentration of 6000 μg/ml. […] Thereafter, the system was ice cooled and absorbancy was measured at 500 nm to determine the glucose amount. […] When the initial enzyme activity (amount of glucose produced) was made 100, relative enzyme activity was determined. […]
# immobilized CGTase = target: T2, immobilized CGTase (Geobacillus stearothermophilus, UniProt P31797); experiment: Stabilization of immobilized CGTase, sugar transfer continuous reaction of N-methylmoranoline; format: biochemical, Bacillus stearothermophilus; conditions: 3360 h; after 140 days, 55° C., 1.5 w/v% N-methylmoranoline and 9 w/v% soluble starch, 160 ml/day; read-out: activity retained
# T2 construct: purchased Hayashibara Biochemical Research Institute
# T2 sequence (P31797 32-711): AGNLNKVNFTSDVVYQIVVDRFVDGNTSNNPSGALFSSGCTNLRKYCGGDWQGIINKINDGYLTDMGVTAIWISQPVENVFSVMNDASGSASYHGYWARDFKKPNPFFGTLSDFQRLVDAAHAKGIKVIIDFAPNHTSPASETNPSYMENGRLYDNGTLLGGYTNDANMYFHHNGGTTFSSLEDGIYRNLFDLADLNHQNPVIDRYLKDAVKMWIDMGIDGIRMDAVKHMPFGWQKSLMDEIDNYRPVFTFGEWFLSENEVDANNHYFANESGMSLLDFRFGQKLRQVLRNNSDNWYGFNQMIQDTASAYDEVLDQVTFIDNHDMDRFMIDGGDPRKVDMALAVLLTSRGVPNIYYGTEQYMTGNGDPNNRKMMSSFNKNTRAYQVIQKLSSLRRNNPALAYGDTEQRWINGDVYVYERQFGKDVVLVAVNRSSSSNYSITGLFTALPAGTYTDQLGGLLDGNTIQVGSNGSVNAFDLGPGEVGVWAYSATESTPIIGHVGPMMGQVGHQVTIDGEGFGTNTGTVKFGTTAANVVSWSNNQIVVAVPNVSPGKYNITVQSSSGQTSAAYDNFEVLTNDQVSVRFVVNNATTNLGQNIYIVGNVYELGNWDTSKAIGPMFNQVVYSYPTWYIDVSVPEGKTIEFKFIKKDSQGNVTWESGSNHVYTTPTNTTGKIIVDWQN
# Protocol: (§1) The immobilized CGTase, 20 ml, obtained in Reference Example 1 was packed in a column having a diameter of 1 cm equipped with a jacket and a solution with the pH being not adjusted containing 1.5 w/v% of N-methylmoranoline and 9 w/v% of soluble starch was continuously passed through the column at 55° C. in a passing velocity of 160 ml/day to react them, whereby the reaction progress rate of the passing liquid was determined with passage of time. The reaction progress rate and activity retention rate were determined in a manner similar to Reference 4. The results reveal that even after 140 days, almost 100% of the activity was retained.
# as §1, with “Example A” for “Example 1”, “to Example 27.” for “to Reference 4. The results reveal that even after 140 days, almost 100% of the activity was retained.”
# β-glucosidase = experiment: Stabilization of β-glucosidase by moranoline and N-methylmoranoline; format: biochemical; conditions: 6 mg/ml of the hydrochloride, kept at 60° C.
# Protocol: Test samples were (1) 1 ml of 0.2M buffer solution of β-glucosidase (300 μg/ml) alone, (2) 1 ml of 0.2M buffer solution of β-glucosidase (300 μg/ml) supplemented with 6 mg/ml of moranoline hydrochloride and, (3) 1 ml of 0.2M buffer solution of β-glucosidase (300 μg/ml) supplemented with 6 mg/ml of N-methylmoranoline hydrochloride. These test samples were kept at 60° C. and the residual enzyme activity was measured with passage of time.
# For determination of the enzyme activity, there was used a method measuring absorbancy at 400 nm using […] as a substrate.
# That is, 200 μl of 0.014M p-nitrophenyl-β-D-glucoside, 200 μl of the enzyme solution taken from each sample for sampling with passage of time which was appropriately diluted, and 600 μl of 0.2M acetate buffer solution (pH 4.5) were reacted at 30° C. for 15 minutes. After 2 ml of 0.1M disodium carbonate was added thereto to terminate the reaction, a color was formed and the color was measured at 400 nm. When absorbancy at the initiation of the reaction was made 100, relative absorbancy in each time was defined to be residual activity.
# T1 sequence (P07683 26-604): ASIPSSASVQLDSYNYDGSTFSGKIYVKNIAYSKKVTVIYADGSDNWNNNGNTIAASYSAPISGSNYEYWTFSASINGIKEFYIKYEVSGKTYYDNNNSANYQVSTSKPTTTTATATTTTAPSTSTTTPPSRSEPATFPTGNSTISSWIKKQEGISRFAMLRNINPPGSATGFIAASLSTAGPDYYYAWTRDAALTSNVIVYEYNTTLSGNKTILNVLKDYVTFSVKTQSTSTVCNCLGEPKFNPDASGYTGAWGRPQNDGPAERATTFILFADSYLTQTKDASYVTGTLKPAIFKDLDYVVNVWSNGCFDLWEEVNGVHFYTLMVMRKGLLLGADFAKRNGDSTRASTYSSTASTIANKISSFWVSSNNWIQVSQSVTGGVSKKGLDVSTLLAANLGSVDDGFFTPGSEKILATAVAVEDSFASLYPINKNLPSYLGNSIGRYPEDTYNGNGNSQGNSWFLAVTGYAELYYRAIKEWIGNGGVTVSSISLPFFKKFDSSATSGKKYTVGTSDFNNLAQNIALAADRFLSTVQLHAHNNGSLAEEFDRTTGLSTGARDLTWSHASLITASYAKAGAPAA
smiles,measurement,setting,value
CN1C[C@H](O)[C@@H](O)[C@H](O)[C@H]1CO [N-methylmoranoline],inhibition of the enzyme activity of glucoamylase,glucoamylase,inhibit the enzyme activity of glucoamylase
same,activity at 15000 µg/mL,immobilized CGTase,~100%
same,"stabilizing effect (residual activity, FIG. 4)",β-glucosidase,stabilizing effect
